In PMC7215935, “GM1 Oligosaccharide Crosses the Human Blood–Brain Barrier In Vitro by a Paracellular Route” (International Journal of Molecular Sciences, 2020):
Like-named read-outs stand apart in the source and are kept apart here.

Columns and labels:
hBLECs = assay: Toxicity on hBLECs / monolayer integrity by LY permeability in combination with test substance; type: cell-based, human; details: 10, 50, 100 and 300 μM with 50 μM LY, 60 min and over time (20, 40, 60 min)
Description: (§1) Prior to the experiments, in order to verify the hBLECs’ monolayer integrity and stability, the permeability parameters were verified as previously reported. Briefly, 1.5 mL Ringer–Hepes solution (RH) (150 mM NaCl, 5.2 mM KCl, 2.2 mM CaCl2, 0.2 mM MgCl26H2O, 6 mM NaHCO3, 5 mM HEPES, pH: 7.4) was added to empty wells of a 12-well plate. Filter insert containing confluent monolayers of hBLECs or not (control) were subsequently placed in the 12-well plate, filled with 0.5 mL RH buffer containing the fluorescent integrity marker LY (50 μM), and then placed on an orbital shaker (150 rpm, Heidolph Titramax 100) at 37 °C in a humidify atmosphere of 95% air/5% CO2. Every 20 min for 1 h, filter inserts were withdrawn from the receiver compartment and placed in the next one. To verify the quantity of LY, at the end of the experiments, aliquots from the donor solution were taken at the end of the experiments and the fluorescence was quantified using a quantification curve of LY as referee. At least three inserts with cells and three without cells were tested in each permeability measurement. The fluorescence was measured using a luminescence spectrometer (LS 50B, Perkin Elmer), using the following excitation/emission wavelength (nm) settings: 432/538. Pe parameters were calculated according to the formulas shown in the Supplementary Information (Equations (7)–(10)). In parallel, as positive control for breakdown of hBLECs, D-mannitol, was used at a concentration of 1.4 M. At this concentration, mannitol induces an osmotic shock, and thus an increase in paracellular permeability.
To evaluate the toxicity of GM1 and OligoGM1, the LY endothelial permeability (Pe) and apparent permeability (Papp) were considered for evaluation of hBLEC monolayer integrity after administration of compounds.
To examine the LY permeability, 1.5 mL of RH buffer was added to empty wells of a 12-well plate, then hBLEC filters were placed in the 12-well plate and filled with 0.5 mL RH buffer containing 50 μΜ LY plus OligoGM1 or GM1 at an appropriate test concentration (from 5 to 300 μΜ). The hBLEC inserts were moved every 20 min to a new RH-filled well up to 60 min. At the end of the incubation period, solutions were collected from apical and basolateral compartments, LY was quantified, and Papp was calculated as reported in the Supplementary Information (Equation (1)) and previously mentioned.

[1] = Direct transport (apical to basolateral, A → B) across the hBLEC monolayer: Pe and Papp; type: in vitro ADME, human; details: human, pH 7.4, 50 μM
Description: as §1
(§2) Transport experiments were carried out by adding tritium-labeled GM1 or OligoGM1 (1 × 10^6 dpm) to cold GM1 or OligoGM1, respectively, at different concentrations, as specified below.
(§3) To identify and quantify the GM1 or OligoGM1 molecules in every transport experiment, aliquots from apical A (5 μL) and basolateral B (200 μL) compartments were collected at indicated time points and combined with 5 mL of ULTIMA GOLD liquid (PerkinElmer), shaken, and counted for 20 min by liquid scintillation analyzer (TRI-CARB 2100TR, Packard). Resulting radioactivity measures were used to estimate the quantity of the molecules. Experiments were performed on an agitation plate at 37 °C (150 rpm, Heidolph Titramax 100) in a humidify atmosphere of 95% air/5% CO2. At least three inserts with cells were tested in each transport experiment for each condition.
(§4) To examine flux from apical to basolateral compartments (A → B), 1.5 mL RH buffer was added to empty wells of a 12-well plate. Following this, the hBLEC filter was placed in the same 12-well plate and filled with 0.5 mL RH buffer containing 1 × 10^6 dpm of tritiated [^3H]GM1 or [^3H]OligoGM1 plus 50 μM of cold GM1 or OligoGM1 (Figure S3b).
(§5) To establish the time dependence of the transport experiments, hBLEC inserts filled with OligoGM1 were transferred into a new receiver well plate filled with fresh RH buffer every 20 min up to 240 min. The hBLECs’ properties, integrity, and stability were maintained up to 240 min in the transport experiments with RH buffer in the upper and basolateral side (see [28] and Figure S4).
(§6) To establish the dose dependence in the transport experiments, 1 × 10^6 dpm of tritiated [^3H]OligoGM1 plus 5, 10, 50, 100, and 300 μM OligoGM1 solutions were prepared and employed as described above. The hBLECs inserts were transferred into a new RH-filled receiver well plate every 20 min up to 60 min. […]
(§7) To evaluate the possible active transport involvement, the transport of OligoGM1 from apical to basolateral (A → B) compartments was performed at 4 °C, with the aim of inhibiting the active transport mechanism at low temperature. […]

[2] = test system: human brain-like endothelial cells (hBLECs); assay: as above; type: in vitro ADME
Description: as §1, §2, §3, §4, §5, §6, §7

MRPs = assay: ABC transporter competition assay (Caco-2 pump out), CMFDA efflux; details: Caco-2 cells, 10, 50 and 100 μM, vs control
Description: (§8) Briefly, Caco-2 cells in 96-well plates were washed once with RH buffer and incubated for 120 min with 10 µM R123 or for 15 min with 0.5 µM CMFDA. R123 and CMFD are substrates for the major efflux pumps expressed by BBB and intestine cells, i.e., P-gp/BCRP and MRPs, respectively. After the incubation period, Caco-2 cells were washed twice with RH buffer with or without test compounds (OligoGM1 at 10, 50, and 100 µM). The rate out (Kout) of Caco-2 cells for fluorescent dyes was monitored by fluorescence measurement (λex = 501 nm and λem = 538 nm for R123; λex = 485 nm and λem = 538 nm for CMFDA) using a microplate fluorescent reader (BioTek, H1, Vermont, Winooski). The amount of dye expelled from the cells was measured at 37 °C and every 5 min for one hour for R123 and every 2 min for 30 min for CMFDA. The rate out of the dye from cells was calculated as the slope of the curve of the cumulative amount of dye against the time (Kout = ∆pmol⁄∆t) and compared with the value in the presence of test compounds.

[3] = test system: human brain-like endothelial cells (hBLECs); assay: Direct transport (apical to basolateral, A → B) across the hBLEC monolayer: Pe and Papp; type: in vitro ADME; details: 300 μM apical, after 240 min
P-gp/BCRP = assay: ABC transporter competition assay (Caco-2 pump out), R123 efflux; details: Caco-2 cells, 10, 50 and 100 μM, vs control
Description: as §8

**Q.** For `CC(=O)NC1C(O)CC(OC2C(O)C(OC3C(CO)OC(O)C(O)C3O)OC(CO)C2OC2OC(CO)C(O)C(OC3OC(CO)C(O)C(O)C3O)C2NC(C)=O)(C(=O)O)OC1C(O)C(O)CO` (stereo not drawn) [OligoGM1, β-Gal-(1-3)-β-GalNAc-(1-4)-[α-Neu5Ac-(2-3)]-β-Gal-(1-4)-β-Glc], which “effect on LY Pe and Papp (toxicity to hBLECs)” value (hBLECs) is on record?
**A.** no variations of LY Pe and Papp were observed

**Q.** What about the Papp A→B at 60 min, 50 μM ([1]; 60 min, 4 °C (Figure 6d), read-out: Papp A>B at 4 °C) of the same compound?
**A.** 6.7 ± 0.17 ×10⁻⁶ cm/s

**Q.** What about the Papp A→B at 60 min, 50 μM ([1]; 60 min, 37 °C, temperature experiment (Figure 6d), read-out: Papp A>B at 37 °C) of the same compound?
**A.** 8.8 ± 0.24 ×10⁻⁶ cm/s

**Q.** And the Papp A→B at 60 min, 50 μM ([1]; after 60 min, hBLEC monolayer, read-out: endothelial permeability Pe (A → B) (converted))?
**A.** 9.67 ×10⁻⁶ cm/s

**Q.** What about the “influence of BSA on rate of A → B transport” value ([2]; 50 μM, 0.1% (w/v) BSA in apical solution, 60 min) of the same compound?
**A.** No difference in the rate of transport

**Q.** What about the “slope of linear regression: % of administered nmol in receiving compartment vs time (min)” value ([2]; 50 μM, 20-240 min, y = slope × x) of the same compound?
**A.** 0.1097

**Q.** What about the “crossing rate / Pe of OligoGM1 relative to GM1” value ([2]; 50 μM, hBLECs) of the same compound?
**A.** 20 fold

**Q.** And the “time dependence of A → B transport” value ([2]; 50 μM, up to 240 min)?
**A.** linear time dependence

**Q.** What about the “slope of linear regression: nmol in receiving compartment vs concentration (μM)” value ([2]; 5-300 μM, 60 min, y = slope × x) of the same compound?
**A.** 0.04352

**Q.** What about the “concentration dependence of A → B transport” value ([2]; 5 to 300 μM, 60 min) of the same compound?
**A.** proportional increase

**Q.** And the “effect on efflux (Kout) of CMFDA” value (MRPs)?
**A.** did not identify any difference

**Q.** And the “concentration in receiving compartment” value [3]?
**A.** ~ 25 μM

**Q.** What about the “share of administered amount in receiving compartment” value ([3]; Transfectagro medium) of the same compound?
**A.** 25%

**Q.** And the “effect on efflux (Kout) of R123” value (P-gp/BCRP)?
**A.** did not identify any difference
